# Values joined by “and” are separate entries in the source; they are usually repeats but may differ in a detail not shown here. Identical values can stand only once. Counter-ions that a name gives are not always drawn. Like-named read-outs stand apart in the source and are kept apart here.
# Key:
# MDBK line = assay: MTT Cell Proliferation Assay, MDBK cells; assay type: cell-based, bovine
# Outline: (§1)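 Viability was measured by mitochondrial MTT reduction after cells were exposed to compound for 3 days in reduced-serum medium. Inhibition was calculated per plate against 0.5% DMSO controls.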
# [1] = system: epithelial carcinoma A431 cell line; assay: MTT Cell Proliferation Assay, A431 cells; assay type: cell-based; settings: for MTT Assay IC50(A431/MDBK): ratio in parentheses: ratio MDBK IC50 / A431 IC50 (selectivity)
# Outline: as §1
# EGFR = biological target: T1, EGFR (Homo sapiens, UniProt P00533); assay: EGFR in-cell Western (ICW) screening protocol (EGFR inhibition assay); assay type: cell-based; design: ICW 1 / ICW 2 / ICW Avg: unit not given here; settings: for ICW Screen: Table 11; for ICW Screen / ICW assay: % Inhibition of EGF dependent EGFR phosphorylation in A431 cells, compound 125 μM in assay; for ICW assay: Table 10; for ICW Avg / ICW 1 / ICW 2: ICW assay; for ICW Avg: average of runs 1 and 2; for ICW 1: run 1; for ICW 2: run 2
# T1 construct: host or cells: A431
# T1 sequence (P00533 25-1210): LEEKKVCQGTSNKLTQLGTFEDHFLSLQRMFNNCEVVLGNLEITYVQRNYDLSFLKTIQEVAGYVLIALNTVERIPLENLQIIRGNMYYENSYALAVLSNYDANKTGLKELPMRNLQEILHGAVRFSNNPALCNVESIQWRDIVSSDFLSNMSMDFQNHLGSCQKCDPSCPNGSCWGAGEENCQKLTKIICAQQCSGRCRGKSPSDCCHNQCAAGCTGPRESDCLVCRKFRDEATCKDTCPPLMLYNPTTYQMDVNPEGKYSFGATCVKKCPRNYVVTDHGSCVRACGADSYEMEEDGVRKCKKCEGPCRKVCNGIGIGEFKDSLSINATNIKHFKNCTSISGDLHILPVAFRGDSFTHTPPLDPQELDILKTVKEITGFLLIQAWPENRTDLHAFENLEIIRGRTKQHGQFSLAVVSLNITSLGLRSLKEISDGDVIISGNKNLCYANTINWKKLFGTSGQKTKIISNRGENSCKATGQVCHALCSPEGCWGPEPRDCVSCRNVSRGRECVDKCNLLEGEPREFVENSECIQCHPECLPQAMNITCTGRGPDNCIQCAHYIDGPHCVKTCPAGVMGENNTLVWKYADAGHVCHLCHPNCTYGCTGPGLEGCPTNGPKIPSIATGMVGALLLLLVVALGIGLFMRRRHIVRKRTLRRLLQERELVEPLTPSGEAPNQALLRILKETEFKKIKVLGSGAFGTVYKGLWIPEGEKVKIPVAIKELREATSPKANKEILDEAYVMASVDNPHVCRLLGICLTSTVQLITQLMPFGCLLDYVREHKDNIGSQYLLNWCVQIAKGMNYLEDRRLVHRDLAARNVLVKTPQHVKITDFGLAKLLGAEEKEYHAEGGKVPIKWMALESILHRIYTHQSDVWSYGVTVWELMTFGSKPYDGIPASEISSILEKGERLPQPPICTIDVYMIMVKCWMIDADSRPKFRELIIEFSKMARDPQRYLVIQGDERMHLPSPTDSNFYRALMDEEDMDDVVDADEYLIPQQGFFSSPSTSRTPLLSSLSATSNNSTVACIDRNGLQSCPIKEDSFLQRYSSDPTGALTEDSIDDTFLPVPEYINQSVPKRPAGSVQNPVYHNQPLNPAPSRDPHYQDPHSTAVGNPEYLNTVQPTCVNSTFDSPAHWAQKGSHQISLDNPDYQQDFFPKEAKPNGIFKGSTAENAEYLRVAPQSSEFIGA
# Outline: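 Serum-starved A431 cells (2 h) were pretreated with compound for 4 h at 37° C, then stimulated with EGF (10 ng/ml final, or 6.6 or 12.5 ng/ml in some runs) for 10 min. After formaldehyde fixation, phospho-EGFR (Tyr1173, or Tyr1045 in some runs) and total EGFR were detected by in-cell Western immunostaining.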
# [2] = Bos taurus, MDBK, second value of 'a/b (c)', taken as MDBK cells, read-out: MTT Screen, second value of cell
# [3] = Homo sapiens, A-431, first value of 'a/b (c)', taken as A431 cells, read-out: MTT Screen, first value of cell
# [4] = Bos taurus, MDBK, Table 11, second of x/y(ratio): MDBK, unit inferred, read-out: MTT Follow-up (second value)
# [5] = Homo sapiens, A-431, Table 11, first of x/y(ratio): A431, unit inferred, read-out: MTT Follow-up (first value)
# [6] = Bos taurus, MDBK, 72 h, Table 10, second of x/y(ratio): MDBK, three day treatment, unit not printed (doses in μM), read-out: MTT assay (second value)
# [7] = Homo sapiens, A-431, 72 h, Table 10, first of x/y(ratio): A431, three day treatment, unit not printed (doses in μM), read-out: MTT assay (first value)
# [8] = Bos taurus, MDBK, MDBK cells, second value of cell, read-out: MTT Assay IC50(A431/MDBK): MDBK
# [9] = Homo sapiens, A-431, A431 cells, first value of cell, read-out: MTT Assay IC50(A431/MDBK): A431
# [10] = second value of 'a/b (c)', taken as MDBK cells, read-out: MTT Screen, second value of cell
# [11] = first value of 'a/b (c)', taken as A431 cells, read-out: MTT Screen, first value of cell
compound,measurement,setting,value
CC(C)C(=O)NC(=S)Nc1ccc(S(=O)(=O)NCCc2ccccc2)cc1 [AD4-10611],IC50,MDBK line; [2],20 µM
same,IC50,[1]; [3],30.9 µM
same,ICW Screen (ICW Inhibition),EGFR,38.285
Cc1cc(C)c2oc(=O)cc(CN3CCN(Cc4ccc5c(c4)OCO5)CC3)c2c1 [AD4-10174],IC50,MDBK line; [4],101 µM
same,IC50,"MDBK line; Bos taurus, MDBK, Table 11, second of x/y(ratio): MDBK, unit not printed (doses in μM), read-out: MTT Screen (second value)",8.58 µM
same,IC50,[1]; [5],4.42 µM
same,IC50,"[1]; Homo sapiens, A-431, Table 11, first of x/y(ratio): A431, unit not printed (doses in μM), read-out: MTT Screen (first value)",2.26 µM
same,ICW Screen,EGFR,45.85
O=S(=O)(Nc1ccc(Cl)cc1)c1ccc(NC(=S)Nc2ccc(Br)cc2)cc1 [AD4-12504],IC50,MDBK line; [6],15.6 µM
same,IC50,[1]; [7],11.1 µM
same,ICW assay,EGFR,118.46
Cc1ccc2nc(Nc3nc(C)cc(-c4ccccc4)n3)nc(C)c2c1 [12689 + TFA],IC50,MDBK line; [8],43.6 µM
same,IC50,[1]; [9],44.1 µM
same,MTT Assay IC50(A431/MDBK): ratio in parentheses,[1],0.99
same,ICW Avg,EGFR,30.58
same,ICW 1,EGFR,44.07
same,ICW 2,EGFR,17.08
Cc1ccc(NC(=S)Nc2ccc(S(=O)(=O)Nc3ccccc3)cc2)cc1Cl [AD4-12844],IC50,MDBK line; [6],6.13 µM
same,IC50,[1]; [7],6.8 µM
same,ICW assay,EGFR,112.768
Cc1cc(C)nc(Nc2nc(-c3ccccc3)c3ccc(Cl)cc3n2)n1 [compound 11636],IC50,"MDBK line; MDBK cells, second value of cell, read-out: MTT Assay IC50(A431/MDBK): MDBK",14.7 µM
same,IC50,[1]; [9],26.8 µM
same,ICW Avg,EGFR,62.56
same,ICW 1,EGFR,61.28
same,ICW 2,EGFR,63.84
COc1ccc(NC(=S)Nc2ccc(S(=O)(=O)Nc3ccc(Cl)c(Cl)c3)cc2)cc1OC [AD4-12246],IC50,MDBK line; [6],8.01 µM
same,IC50,[1]; [7],8.36 µM
same,ICW assay,EGFR,38.3844
O=C(NC(=S)Nc1ccc(S(=O)(=O)N2CCCCC2)cc1)C1CCC1 [AD4-12064],IC50,MDBK line; [10],42.7 µM
same,IC50,[1]; [11],47.8 µM
same,ICW Screen (ICW Inhibition),EGFR,34.778
CCOC(=O)c1c(N)nc(Nc2nc(C)c3cc(OC)ccc3n2)nc1-c1ccccc1 [compound 12679],IC50,MDBK line; [8],42 µM
same,IC50,[1]; [9],15.1 µM
same,MTT Assay IC50(A431/MDBK): ratio in parentheses,[1],2.78
same,ICW Avg,EGFR,70.50
same,ICW 1,EGFR,73.98
same,ICW 2,EGFR,67.01
Cc1ccccc1OCC(=O)NC(=S)Nc1ccc(S(=O)(=O)NC2CCCCC2)cc1 [AD4-12073],IC50,MDBK line; [2],32.3 µM
same,IC50,MDBK line; [10],17 µM
same,IC50,[1]; [3],19.5 µM
same,IC50,[1]; [11],11.6 µM
same,ICW Screen (ICW Inhibition),EGFR,29.313
CCCCc1ccc(NC(=S)Nc2ccc(S(=O)(=O)Nc3ccc(Cl)cc3)cc2)cc1 [AD4-12501],IC50,MDBK line; [6],4.06 µM
same,IC50,[1]; [7],4.06 µM
same,ICW assay,EGFR,71.3823
C=CCc1c(C)nc(Nc2nc(C)c3cccc(OCC)c3n2)[nH]c1=O [compound 12737],IC50,MDBK line; [8],6.33 µM
same,IC50,[1]; [9],14.7 µM
same,MTT Assay IC50(A431/MDBK): ratio in parentheses,[1],0.43
same,ICW Avg,EGFR,42.27
same,ICW 1,EGFR,38.90
same,ICW 2,EGFR,45.65
CCc1ccc(NC(=S)Nc2ccc(S(=O)(=O)Nc3ccccc3)cc2)cc1 [AD4-12854],IC50,MDBK line; [6],8.19 µM
same,IC50,[1]; [7],6.64 µM
same,ICW assay,EGFR,38.7055
Cc1ccc2nc(Nc3nc(C)c(CCC(C)C)c(=O)[nH]3)nc(C)c2c1 [12666 + TFA],IC50,MDBK line; [8],17.1 µM
same,IC50,[1]; [9],14.5 µM
same,MTT Assay IC50(A431/MDBK): ratio in parentheses,[1],1.18
same,ICW Avg,EGFR,36.77
same,ICW 1,EGFR,48.16
same,ICW 2,EGFR,25.37
Cc1ccc(NS(=O)(=O)c2ccc(NC(=S)NC(=O)CC(C)C)cc2)c(C)c1 [AD4-12010],IC50,MDBK line; [2],6.16 µM
same,IC50,[1]; [3],6.68 µM
same,ICW Screen (ICW Inhibition),EGFR,33.772
CC1CCc2cc(F)ccc2N1S(=O)(=O)c1ccc(NC(=S)Nc2ccc(Cl)c(Cl)c2)cc1 (stereo not shown) [AD4-12827],IC50,MDBK line; [6],6.4 µM
same,IC50,[1]; [7],6.49 µM
same,ICW assay,EGFR,45.9206
O=S(=O)(Nc1ccccc1)c1ccc(NC(=S)Nc2ccc(Cl)cc2)cc1 [AD4-12783],IC50,MDBK line; [6],7.62 µM
same,IC50,[1]; [7],7 µM
same,ICW assay,EGFR,57.4272
CCc1cc2c(CN3CCN(C(c4ccccc4)c4ccccc4)CC3)cc(=O)oc2cc1O [AD4-10619],IC50,MDBK line; [4],3.06 µM
same,IC50,[1]; [5],2.97 µM
same,"MTT Screen, % @ […]","[1]; Table 11, @ […], cell line not stated",87% @ 2.6 μM
same,ICW Screen,EGFR,−44.55
Cc1ccc2nc(Nc3nc(CSc4nnc(C)s4)cc(=O)[nH]3)nc(C)c2c1 [compound 11450],IC50,MDBK line; [8],6.83 µM
same,IC50,[1]; [9],6.98 µM
same,ICW Avg,EGFR,50.68
same,ICW 1,EGFR,53.35
same,ICW 2,EGFR,48.02
COc1ccc2nc(Nc3nc(CSc4ccc(C)cc4)cc(=O)[nH]3)nc(C)c2c1 [compound 11617],IC50,MDBK line; [8],19.7 µM
same,IC50,[1]; [9],6.01 µM
same,MTT Assay IC50(A431/MDBK): ratio in parentheses,[1],3.28
same,ICW Avg,EGFR,29.18
same,ICW 1,EGFR,27.71
same,ICW 2,EGFR,30.66
CCCc1c(C)nc(Nc2nc(C)c3cccc(C)c3n2)[nH]c1=O [12625 + TFA],IC50,MDBK line; [8],17 µM
same,IC50,[1]; [9],21.2 µM
same,MTT Assay IC50(A431/MDBK): ratio in parentheses,[1],0.80
same,ICW Avg,EGFR,34.27
same,ICW 1,EGFR,30.45
same,ICW 2,EGFR,38.10
COc1ccc(NS(=O)(=O)c2ccc(NC(=S)NC(=O)CCC(=O)OCCc3ccccc3)cc2)cc1 [AD4-12149],IC50,MDBK line; [2],36.2 µM
same,IC50,[1]; [3],21.9 µM
same,ICW Screen (ICW Inhibition),EGFR,33.331
COc1ccc(/C=C/C(=O)NC(=S)Nc2ccc(S(=O)(=O)Nc3cc(OC)nc(OC)n3)cc2)cc1 [AD4-11645],IC50,MDBK line; [2],47 µM
same,IC50,[1]; [3],45.6 µM
same,ICW Screen (ICW Inhibition),EGFR,66.452
Cc1ccc(NC(=S)Nc2ccc(S(=O)(=O)Nc3ccc(Cl)cc3)cc2)cc1Cl [AD4-12505],IC50,MDBK line; [6],6.02 µM
same,IC50,[1]; [7],5.69 µM
same,ICW assay,EGFR,93.3284
CC(C)CC(=O)NC(=S)Nc1ccc(S(=O)(=O)N2CCc3ccccc32)cc1 [AD4-10626],IC50,MDBK line; [2],19.6 µM
same,IC50,[1]; [3],5.31 µM
same,ICW Screen (ICW Inhibition),EGFR,50.05
Cc1cc(NS(=O)(=O)c2ccc(NC(=S)NC(=O)/C=C/c3ccccc3)cc2)no1 [AD4-12173],IC50,MDBK line; [10],106 µM and 54 µM
same,IC50,[1]; [3],37.3 µM
same,IC50,[1]; [11],55.8 µM
same,ICW Screen (ICW Inhibition),EGFR,35.393
COc1ccc(OCC(=O)NC(=S)Nc2ccc(S(=O)(=O)Nc3cc(C)cc(C)c3)cc2)cc1 [AD4-11396],IC50,MDBK line; [10],21.2 µM
same,IC50,[1]; [11],25.1 µM
same,ICW Screen (ICW Inhibition),EGFR,30.745
FC(F)(F)c1cc(C(F)(F)F)nc(Nc2nc(-c3ccccc3)c3cc(Cl)ccc3n2)n1 [compound 11449],IC50,MDBK line; [8],5.4 µM
same,IC50,[1]; [9],6.41 µM
same,MTT Assay IC50(A431/MDBK): ratio in parentheses,[1],0.84
same,ICW Avg,EGFR,37.11
same,ICW 1,EGFR,48.00
same,ICW 2,EGFR,26.22
CC1CCC(S(=O)(=O)c2ccc(NC(=S)NC(=O)C3CC3)cc2)CC1 (stereo not shown) [AD4-12146],IC50,MDBK line; [2],25.8 µM
same,IC50,[1]; [3],26.6 µM
same,ICW Screen (ICW Inhibition),EGFR,40.916
Cc1ccc(NS(=O)(=O)c2ccc(NC(=S)NC(=O)CCc3ccccc3)cc2)cc1C [AD4-11419],IC50,MDBK line; [2],38.8 µM
same,IC50,[1]; [3],31.3 µM
same,ICW Screen (ICW Inhibition),EGFR,40.289

# From US20140179681A1, “METHODS AND COMPOSITIONS OF TARGETED DRUG DEVELOPMENT” (priority 2010, published 2014)
